From US20250352654A1, “PHARMACEUTICAL AGENT CONJUGATES TO MODULATE MACROPHAGE AND INFLAMMATORY FUNCTIONS AND USES THEREOF” (REGENTS OF THE UNIVERSITY OF MINNESOTA, priority 2022, published 2025)
Where two headings read alike, the source gives them in different places. Bridge positions count the residues as written; N and C are the ends. Square brackets hold non-standard residues; d marks the D form. Ends that are not written are not given here.

Experiments:
[1] = In vivo pharmacokinetics of PSL conjugates; conditions: male, C57BL/6, mouse, plasma, iv, healthy mice, 1 mg kg-1 equivalent dose of PSL
Protocol: FIG. 2U discloses mean plasma concentration-time curves of PSL following intravenous administration of free PSL, Cys-PSL and CRV-PSL with an equivalent PSL dosage at 1 mg kg^−1. All the animal experiments were performed in 3-4 mice per group. The data are presented as the mean±standard deviation (SD). Statistical significance was calculated using Student's t test. *P<0.05, **P<0.01, CRV-PSL vs free PSL group; #P<0.05, ##P<0.01, ###P<0.001 Cys-PSL vs free PSL group.
HPLC-MS/MS analysis was performed using the chromatographic system consisted of UltiMate™ 3000 RSLCnano System (Thermo Fisher Scientific) and a ZORBAX™ C18 column (5 μm, 150 mm 0.5 mm, Agilent, Santa Clara, CA). The mobile phase was a mixture of H2O/acetonitrile with a gradient elution (from 90:10 to 10:90 and return to 90:10, v/v) at a flow rate of 15 μl/min. The eluent was introduced directly into the electrospray source of a tandem quadrupole mass spectrometer (TSQ VANTAGE™, Thermo Fisher Scientific) that was operated in the positive mode. The spray voltage was set at 3000 V. The compounds were analyzed by multiple reaction monitoring (MRM) of the transitions of m/z (ESI+) 361.24→147.06 for PSL.
Healthy male C57BL/6 mice (8- to 9-weeks-old; body weight of 25-30 g) were deprived of food overnight with free access to water. […]
We first evaluated the plasma pharmacokinetics of CRV-PSL in healthy mice.

[2] = format: in vivo, mouse; conditions: for Thymus weight: mean; for Lymphocytes (count of total blood lymphocytes) / T cells (CD45+CD3+) count: normalized to the vehicle group
Protocol: (C and D) Flow-cytometry analysis of blood cell populations in mice with different treatment. The count of (C) blood lymphocytes and (D) T cells in mice receiving different treatment were normalized to the vehicle group. […] The weight of thymus was measured, and the blood was collected for flow cytometry 4 h after the third dose of treatment. All experiments were performed in 3-4 mice per group, and the experiment was repeated three times. Data shown are mean±SD. Student's t test was performed for statistical analysis. *p<0.05, **p<0.01, ***p<0.001.
The gating was started with choosing the live cells by plotting SSC-A vs. FSC-A. Single cells were then selected by plotting FSC-A vs. FSC-H for the live cells followed by subpopulation of CD45+ cells. The lymphocytes were selected by plotting CD45+ cells and SSC-A, which were then selected for T cells by CD3 staining. The tissues and the blood were collected 4 hours after the third dose of treatment. All experiments were performed in 3-4 mice per group and the experiment was repeated three times. The data are presented as the mean±standard deviation (SD). Statistical significance was calculated using Student's t test.
To identify subpopulations of myeloid cells, single cell suspensions were collected from the lung with a lung dissociation kit for mouse (Miltenyi Biotec, Auburn, CA) and other tissues, including blood and spleen, were collected for flow cytometry analysis. […] Flow cytometry analysis was performed on a BD Fortessa™ X-20 (BD Biosciences, East Rutherford, NJ). The data were analyzed with Flow JO™ software (Tree Star, San Carlos, CA).

4T1 breast cancer tumor = test: Tumor accumulation of D-CRV and L-CRV after oral administration; format: in vivo, mouse; conditions: 4 hours, IF
Protocol: FAM-labeled L-CRV or D-CRV was orally administered to tumor-bearing mice.
To compare the in vivo distributions of the D-isoform of CRV (D-CRV) and the L-isoform of CRV (L-CRV), fluorescein (FAM) dye labeled D-CRV and L-CRV peptides were synthesized. 100 μL of peptide solution (5 mg/mL in PBS) was administered via oral gavage into mice bearing a 4T1 breast cancer tumor (for a description of how this mouse model is generated, see J Control Release 301:42-53, 2019) 4 hours before the tumors were collected. Peptide accumulation in the tumor was observed by immunofluorescence (IF) staining of FAM. We had previously shown that L-CRV homes to such tumors following intravenous injection. […] Additionally, (D)-CRV-DEX was first applied to RA mice model via subcutaneous administration with hydrogel. […] The pharmacokinetics (PK) and biodistribution at other time points will be further evaluated.

[3] = 0.1 or 1 mg kg-1 PSL equivalent

Row | Compound | AUC(0-t) ([1]; mean (n = 3)) [ng·h/mL] | half-life ([1]; mean ± SD (n = 3)) [h] | Thymus weight ([2]; 0.1 mg kg-1 PSL equivalent i.v. every 2 days for 5 days) [mg] | Lymphocytes (count of total blood lymphocytes) ([2]; 0.1 mg kg-1 PSL equivalent) [fold changes] | T cells (CD45+CD3+) count ([2]; 0.1 mg kg-1 PSL equivalent) [fold changes] | Thymus weight ([2]; 1 mg kg-1 PSL equivalent i.v. every 2 days for 5 days) [mg] | Lymphocytes (count of total blood lymphocytes) ([2]; 1 mg kg-1 PSL equivalent) [fold changes] | T cells (CD45+CD3+) count ([2]; 1 mg kg-1 PSL equivalent) [fold changes] | apoptosis in the thymus and other organs (TUNEL) [2, 3] | counts of total lymphocytes and T subsets (in words) [2, 3] | thymus weight (in words) ([2]; 0.1 or 1 mg kg-1 PSL equivalent i.v. every two days for five days) | peptide accumulation in the tumor (4T1 breast cancer tumor; FAM-labeled peptide, oral gavage 100 uL of 5 mg/mL) | colocalization with CD11b in the tumor (4T1 breast cancer tumor; oral gavage)
1 | C[C@]12C=CC(=O)C=C1CC[C@@H]1[C@@H]2[C@@H](O)C[C@@]2(C)[C@H]1CC[C@]2(O)C(=O)CO [Free PSL, prednisolone] | 41300 | 3.78 ± 0.5 | 36.3 | 0.45 | 0.47 | 28.3 | 0.27 | 0.40 | increases the level of apoptosis mainly in the thymus | reduced the counts of total lymphocytes and T subsets | greatest reduction in thymus weight | – | –
2 | D-CRV: D-isoform of CRV (SEQ ID NO: 52), fluorescein (FAM) dye labeled ([dC][dR][dV][dL][dR][dS]G[dS][dC]; disulfide 1-9 (inferred); also: FAM label, position not given here) | – | – | – | – | – | – | – | – | – | – | – | significant accumulation of CRV in the tumors | colocalization with the myeloid cell marker CD11b in the tumor
